Reference: patent US9458137B2, “Substituted indol-5-ol derivatives and their therapeutical applications” (NantBioScience, Inc., priority 2012, dated 2016)

System: abl kinase
Experiment: abl kinase inhibition assay
Assay type: biochemical

| % Inhibition @1 μM Abl [%] | SMILES |
| --- | --- |
| 108 | COCCN1CCN(c2cc(Nc3cc(C4CC4)[nH]n3)nc(Oc3ccc4[nH]c(C)cc4c3F)n2)CC1 [Example 28] |
| 111 | C/C=C/c1cc(Nc2cc(N3CCN(C(C)=O)CC3)nc(Oc3ccc4[nH]c(C)cc4c3F)n2)n[nH]1 [Example 56] |
| 112 | C/C=C/c1cc(Nc2cc(N3CCC(O)C3)nc(Oc3ccc4[nH]c(C)cc4c3F)n2)n[nH]1 (centres unmarked) [Example 61] |
| 115 | CCN1CCN(c2cc(Nc3cc(C4CC4)[nH]n3)nc(Oc3ccc4[nH]c(C)cc4c3F)n2)CC1 [Example 31] |
| 111 | Cc1cc(Nc2cc(N3CCOCC3)nc(Oc3cc(F)c4[nH]c(C)cc4c3F)n2)n[nH]1 [Example 107] |
| 110 | Cc1cc2c(F)c(Oc3nc(Nc4cc(C5CC5)[nH]n4)cc(N4CCN(CCO)CC4)n3)cc(F)c2[nH]1 [Example 83] |
| 111 | C/C=C/c1cc(Nc2cc(N3CCC(N(CC)CC)C3)nc(Oc3ccc4[nH]c(C)cc4c3F)n2)n[nH]1 (centres unmarked) [Example 62] |
| 94 | COCC1CCN(c2cc(Nc3cc(C4CC4)[nH]n3)nc(Oc3ccc4[nH]c(C)cc4c3F)n2)C1 (centres unmarked) [Example 44] |
| 110 | C/C=C/c1cc(Nc2cc(N3CCN(S(C)(=O)=O)CC3)nc(Oc3ccc4[nH]c(C)cc4c3F)n2)n[nH]1 [Example 55] |
| 112 | C/C=C/c1cc(Nc2cc(N3CCOCC3)nc(Oc3ccc4[nH]c(C)cc4c3F)n2)n[nH]1 [Example 67] |
| 109 | Cc1cc2c(F)c(Oc3nc(Nc4cc(C5CC5)[nH]n4)cc(N4CCN(c5cccnc5)CC4)n3)ccc2[nH]1 [Example 26] |
| 116 | C/C=C/c1cc(Nc2cc(N3CCOCC3)nc(Oc3ccc4c(cc(C)n4C)c3F)n2)n[nH]1 [Example 121] |
| 112 | Cc1cc2c(F)c(Oc3nc(Nc4cc(C5CC5)[nH]n4)cc(N4CCN(CCO)CC4)n3)ccc2[nH]1 [Example 12] |
| 103 | Cc1cc2c(F)c(Oc3nc(Nc4cc(C5CC5)[nH]n4)cc(N4CCOCC4)n3)cc(F)c2[nH]1 [Example 84] |
| 113 | C/C=C/c1cc(Nc2cc(N3CCN(CC)CC3)nc(Oc3cc(F)c4[nH]c(C)cc4c3F)n2)n[nH]1 [Example 99] |
| 111 | C/C=C/c1cc(Nc2cc(N3CCC(OC)C3)nc(Oc3cc(F)c4[nH]c(C)cc4c3F)n2)n[nH]1 (centres unmarked) [Example 93] |
| 111 | Cc1cc2c(F)c(Oc3nc(Nc4cc(C5CC5)[nH]n4)cc(N4CCNC(CO)C4)n3)ccc2[nH]1 (centres unmarked) [Example 43] |
| 111 | C/C=C/c1cc(Nc2cc(N3CCS(=O)(=O)CC3)nc(Oc3ccc4[nH]c(C)cc4c3F)n2)n[nH]1 [Example 57] |
| 110 | Cc1cc2c(F)c(Oc3nc(Nc4cc(C5CC5)[nH]n4)cc(N4CCN(CCN(C)C)CC4)n3)ccc2[nH]1 [Example 42] |
| 106 | Cc1cc2c(F)c(Oc3nc(Nc4cc(C5CC5)[nH]n4)cc(N4CCNCC4)n3)cc(F)c2[nH]1 [Example 82] |
| 109 | Cc1cc2c(F)c(Oc3nc(Nc4cc(C5CC5)[nH]n4)cc(N4CCN(C)CC4)n3)ccc2n1C [Example 122] |
| 113 | CCN1CCN(c2cc(Nc3cc(C)[nH]n3)nc(Oc3cc(F)c4[nH]c(C)cc4c3F)n2)CC1 [Example 103] |
| 112 | Cc1cc(Nc2cc(N3CCN(CCO)CC3)nc(Oc3cc(F)c4[nH]c(C)cc4c3F)n2)n[nH]1 [Example 105] |
| 111 | C/C=C/c1cc(Nc2cc(N3CCC(O)C3)nc(Oc3cc(F)c4[nH]c(C)cc4c3F)n2)n[nH]1 (centres unmarked) [Example 92] |
| 111 | C/C=C/c1cc(Nc2cc(N3CCC(N(CC)CC)C3)nc(Oc3cc(F)c4[nH]c(C)cc4c3F)n2)n[nH]1 (centres unmarked) [Example 94] |
| 111 | C/C=C/c1cc(Nc2cc(N3CCN(S(C)(=O)=O)CC3)nc(Oc3cc(F)c4[nH]c(C)cc4c3F)n2)n[nH]1 [Example 98] |
